Legend:
T. b. brucei GUTat3.1 = assay: In vitro trypanocidal activity (CellTiter-Glo, 3 days); assay type: cell-based; conditions: Trypanosoma brucei, 72 h, bloodstream forms, 37 °C, mean ± SD of triplicate, read-out: Trypanocidal Activity IC50 ± SD, Tbb GUTat3.1
Description: (§1) The bloodstream forms of T. b. brucei GUTat3.1, T. b. rhodesiense IL1501, T. b. rhodesiense Chirundu, T. b. gambiense IL1922, and T. evansi Tansui strains were propagated in culture at 37 °C, whereas the T. congolense IL3000 strain was propagated at 33 °C in Hirumi’s modified Iscove’s medium-9, supplemented with 20% heat-inactivated fetal bovine serum. The bloodstream form cultures were maintained by replacing the entire culture supernatant with fresh medium, every other day.
(§2) The trypanocidal activity and cytotoxicity of nitrofurantoin analogs were evaluated according to previous reports, with some modifications. In brief, bloodstream forms adjusted at 2.5 × 10^3 cells/mL (T. b. brucei GUTat3.1, T. b. gambiense IL1922, and T. b. rhodesiense IL1501), 1 × 10^4 cells/mL (T. evansi Tansui and T. b. rhodesiense Chirundu), and 1 × 10^5 cells/mL (T. congolense IL3000), were cultivated in Nunc® MicroWell 96-well optical bottom plates (Thermo Fisher Scientific, Waltham, MA, USA) and exposed to various analogs at seven different concentrations for 3 days, in an incubator at 37 °C (33 °C for T. congolense IL3000). […] Twenty-five microliters of the Cell-TiterGlo® (Promega, Madison, WI, USA) reagent was added into each well, and bioluminescence was measured using a GloMax®-Multi+Detection System plate reader (Promega).
(§3) The half maximum inhibitory concentration (IC50) of each analog in trypanosomes and the Madin–Darby bovine kidney cells was calculated using the GraphPad Prism version 8 software (GraphPad, Inc., San Diego, CA, USA).

T. b. gambiense IL1922 = assay: as above; assay type: cell-based; conditions: Trypanosoma brucei, 72 h, bloodstream forms, 37 °C, mean ± SD of triplicate, read-out: Trypanocidal Activity IC50 ± SD, Tbg IL1922
Description: as §1, §2, §3

[1] = system: T. b. rhodesiense Chirundu; assay: as above; assay type: cell-based; conditions: Trypanosoma brucei, 72 h, bloodstream forms, 37 °C, mean ± SD of triplicate, read-out: Trypanocidal Activity IC50 ± SD, Tbr Chirundu
Description: as §1, §2, §3

T. b. rhodesiense IL1501 = assay: as above; assay type: cell-based; conditions: Trypanosoma brucei, 72 h, bloodstream forms, 37 °C, mean ± SD of triplicate, read-out: Trypanocidal Activity IC50 ± SD, Tbr IL1501
Description: as §1, §2, §3

T. congolense IL3000 [2] = assay: as above; assay type: cell-based; conditions: Trypanosoma congolense, 72 h, bloodstream forms, 33 °C, mean ± SD of triplicate, read-out: Trypanocidal Activity IC50 ± SD, Tc IL3000
Description: as §1, §2, §3

T. evansi Tansui = assay: as above; assay type: cell-based; conditions: 72 h, bloodstream forms, 37 °C, mean ± SD of triplicate, read-out: Trypanocidal Activity IC50 ± SD, Tev Tansui
Description: as §1, §2, §3

[3] = Cytotoxicity (Cell Counting Kit-8, 3 days); assay type: cell-based, bovine; conditions: bovine, 37 °C, mean ± SD of triplicate
Description: Additionally, Madin–Darby bovine kidney cells were cultivated (density, 1 × 10^4 cells/mL) in a 96-well cell culture plate (Thermo Fisher Scientific) with the analogs, at seven different concentrations for 3 days at 37 °C. Next, 10 µl of the Cell Counting Kit-8 solution (Dojindo, Kumamoto, Japan) was added into each well […] 4 h of incubation. Absorbance was measured at 450 nm using a GloMax®-Multi+Detection System plate reader.
as §3

T. congolense IL3000 [4] = assay: In vivo treatment efficacy in mice infected with T. congolense; set-up: species or system BALB/c mice; conditions: for time by which all mice died because of high parasitemia: intraperitoneal injection at 0.1 mg/kg
Description: Healthy female 8-week-old BALB/c mice (CLEA Japan, Inc., Tokyo, Japan) were used in this study. All animals had ad libitum access to normal chow and water.
The virulent T. congolense IL3000 strain was propagated in a mouse and used for infection. The parasites were passaged once in a mouse before the experiment. The experimental mice were intraperitoneally infected with 100 μL of T. congolense in phosphate-buffered saline, containing 10% glucose at 1 × 10^3 cells/mouse. First, the mice were randomly divided into six groups of three mice, each as follows. Group I (no treatment), mice were not infected and were only treated with solvent (10% dimethyl sulfoxide–phosphate–buffered saline). Group II received 3.5 mg/kg of diminazene aceturate treatment. Groups III (9), IV (11), V (12), and VI were treated with nitrofurantoin and the mice were infected and intraperitoneally treated with 0.1 mg/kg of the compound.
In the second experiment, the mice were randomly divided into six groups of three mice, each as follows—group I received no treatment; group II received 3.5 mg/kg of diminazene aceturate treatment; and groups III (9), IV (11), V (12), and VI received nitrofurantoin—the mice were infected and orally treated with 10 mg/kg of the compound.
Treatment was initiated at 2 days post-infection (dpi) and continued for seven consecutive days. The treatments were freshly prepared each day. Parasitemia was observed using a cell counting chamber until 14 dpi.

[5] = Madin–Darby bovine kidney (MDBK) cells
[6] = 7 consecutive days from 2 dpi, T. congolense-infected mice

SMILES	IC50 (T. b. brucei GUTat3.1) [µM]	IC50 (T. b. gambiense IL1922) [µM]	IC50 [1] [µM]	IC50 (T. b. rhodesiense IL1501) [µM]	IC50 (T. congolense IL3000 [2]) [µM]	IC50 (T. evansi Tansui) [µM]	IC50 at 3 days [3, 5] [µM]	treatment efficacy against T. congolense infection in vivo (T. congolense IL3000 [4]; after both oral (10 mg/kg) and intraperitoneal (0.1 mg/kg) administration)	time by which all mice died because of high parasitemia (T. congolense IL3000 [4]; [6]) [dpi]	time by which all mice succumbed to high parasite levels (T. congolense IL3000 [4]; oral, 10 mg/kg, 7 consecutive days from 2 dpi, T. congolense-infected mice) [dpi]	treatment efficacy against T. congolense infection in vivo (T. congolense IL3000 [4]; oral treatment, 10 mg/kg)	mice surviving until end of the experiment period (T. congolense IL3000 [4]; oral, 10 mg/kg, three mice per group, observed until 14 dpi)	parasitemia (T. congolense IL3000 [4]; group II, 3.5 mg/kg, T. congolense-infected mice)	IC50 at 3 days ([3]; MDBK cells) [µM]
CCCCCCN1C(=O)CN(/N=C/c2ccc([N+](=O)[O-])o2)C1=O [Analog 6, (E)-3-Hexyl-1-([(5-nitrofuran-2-yl)methylene]amino)imidazolidine-2,4-dione]	5.76 ± 4.01	2.59 ± 0.28	0.17 ± 0.11	2.61 ± 0.12	0.08 ± 0.047	3.76 ± 0.47	25.2 ± 3.52	–	–	–	–	–	–	–
O=C1CN(/N=C/c2ccc([N+](=O)[O-])o2)C(=O)N1Cc1ccc(C(F)(F)F)cc1 [Analog 16, (E)-1-([(5-Nitrofuran-2-yl)methylene]amino)-3-(p-(trifluoromethyl)benzyl) imidazolidine-2,4-dione]	0.52 ± 0.081	0.61 ± 0.26	0.02 ± 0.012	0.96 ± 0.0087	0.02	0.44 ± 0.046	56.6 ± 40.8	–	–	–	–	–	–	–
CCCCCCCCCN1C(=O)CN(/N=C/c2ccc([N+](=O)[O-])o2)C1=O [Analog 9, (E)-1-([(5-Nitrofuran-2-yl)methylene]amino)-3-nonylimidazolidine-2,4-dione]	0.57 ± 0.22	0.44 ± 0.17	0.017 ± 0.0067	0.6 ± 0.54	0.01 ± 0.0035	0.27 ± 0.025	251 ± 58.3	no treatment efficacy	≤ 9	≤ 9	–	–	–	–
CCCCN1C(=O)CN(/N=C/c2ccc([N+](=O)[O-])o2)C1=O [Analog 4, (E)-3-Butyl-1-([(5-nitrofuran-2-yl)methylene]amino)imidazolidine-2,4-dione]	33.3 ± 24.3	17.2 ± 2.23	1.38 ± 0.34	32.7 ± 0.82	0.31 ± 0.2	7.89 ± 0.53	35.8 ± 3.49	–	–	–	–	–	–	–
O=C1CN(/N=C/c2ccc([N+](=O)[O-])o2)C(=O)N1 [Nitrofurantoin]	1.42 ± 0.15	1.62 ± 0.28	–	1.42 ± 0.25	0.36 ± 0.043	1.96 ± 0.5	–	–	≤ 9	–	partial efficacy	two of three	–	–
CCCCCCCCCCN1C(=O)CN(/N=C/c2ccc([N+](=O)[O-])o2)C1=O [Analog 10, (E)-3-Decyl-1-([(5-nitrofuran-2-yl)methylene]amino)imidazolidine-2,4-dione]	0.65 ± 0.56	0.62 ± 0.7	0.017 ± 0.0044	0.61 ± 0.06	0.011 ± 0.0044	0.28 ± 0.025	110 ± 14.4	–	–	–	–	–	–	–
CC(=O)NCC(=O)O.CC(=O)NCC(=O)O.N=C(N)c1ccc(N=NNc2ccc(C(=N)N)cc2)cc1 [diminazene aceturate, reference compound]	–	–	–	–	–	–	–	–	–	–	–	–	not observed	–
O=C1CN(/N=C/c2ccc([N+](=O)[O-])o2)C(=O)N1CCCc1ccccc1 [Analog 13, (E)-1-([(5-Nitrofuran-2-yl)methylene]amino)-3-(3-phenylpropyl)imidazolidine-2,4-dione]	7.29 ± 3.16	4.83 ± 3.22	0.14 ± 0.067	5.9 ± 3.75	0.14 ± 0.03	3.11 ± 0.37	> 281	–	–	–	–	–	–	–
COc1ccc(CN2C(=O)CN(/N=C/c3ccc([N+](=O)[O-])o3)C2=O)cc1 [Analog 18, (E)-3-(p-Methoxybenzyl)-1-([(5-nitrofuran-2-yl)methylene]amino)imidazolidine-2,4-dione]	9.91 ± 0.092	9.78 ± 0.31	0.33 ± 0.22	10.1 ± 0.62	0.14 ± 0.03	2.4 ± 0.19	80.1 ± 36.9	–	–	–	–	–	–	–
O=C1CN(/N=C/c2ccc([N+](=O)[O-])o2)C(=O)N1Cc1ccccc1 [Analog 14, (E)-3-Benzyl-1-([(5-nitrofuran-2-yl)methylene]amino)imidazolidine-2,4-dione]	2.88 ± 0.26	2.34 ± 0.64	0.27 ± 0.12	2.83 ± 0.61	0.18 ± 0.017	1.26 ± 0.1	> 305	–	–	–	–	–	–	–
O=C1CN(/N=C/c2ccc([N+](=O)[O-])o2)C(=O)N1Cc1ccc([N+](=O)[O-])cc1 [Analog 17, (E)-3-(p-Nitrobenzyl)-1-([(5-nitrofuran-2-yl)methylene]amino)imidazolidine-2,4-dione]	1.07 ± 0.74	1.05 ± 0.7	0.04 ± 0.094	0.5 ± 0.012	0.04 ± 0.017	0.61 ± 0.05	–	–	–	–	–	–	–	20.1 ± 1.02
Cc1ccc(CN2C(=O)CN(/N=C/c3ccc([N+](=O)[O-])o3)C2=O)cc1 [Analog 15, (E)-3-(p-Methylbenzyl)-1-([(5-nitrofuran-2-yl)methylene]amino)imidazolidine-2,4-dione]	8.24 ± 3.11	2.89 ± 0.51	0.15 ± 0.068	6.1 ± 0.047	0.13 ± 0.044	4.23 ± 0.4	34.3 ± 11.5	–	–	–	–	–	–	–
O=C1CN(/N=C/c2ccc([N+](=O)[O-])o2)C(=O)N1Cc1ccc(Br)cc1 [Analog 19, (E)-3-(p-Bromobenzyl)-1-([(5-nitrofuran-2-yl)methylene]amino)imidazolidine-2,4-dione]	2.13 ± 0.23	2.04 ± 0.091	0.041 ± 0.025	2.47 ± 0.69	0.049 ± 0.033	1.15 ± 0.11	28.7 ± 5.69	–	–	–	–	–	–	–
